Where two headings read alike, the source gives them in different places.
Experiments:
[1] = system: Wnt reporter (TCF/LEF1 promoter); assay: HEK STF293 Wnt reporter (TOPFlash) luciferase assay, Steady Glo normalised to Cell Titer; assay type: cell-based, human
Outline: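 HEK STF293 cells carrying a TCF/LEF1-driven firefly luciferase were stimulated with Wnt3a-conditioned media (1:1) and compound at final 100 μM to 1 nM. Next day, lysates were read by Steady Glo luminescence. EC50 was derived from Steady Glo divided by Cell Titer to normalize for cell number.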

[2] = system: Wnt-dependent HCT116 cell line; assay: Viability assay using Wnt-dependent HCT116 cell line (Cell Titer Glo); assay type: cell-based
Outline: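 HCT116 cells at 2,500 cells/well were treated on day 2 with DMSO-diluted compounds further diluted 500-fold in medium, giving a final 0.1% DMSO. Viability was read on day 5 by Cell Titer Glo luminescence.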

[3] = Homo sapiens, STF/293, Examples for Formulae (IV), (V), (VI), and (VII), HEK STF293 cells, Wnt3a-conditioned media, read-out: TOPFlash IC50 category
[4] = Homo sapiens, HCT-116, Examples for Formulae (IV), (V), (VI), and (VII), HCT116 cells, read-out: Viability IC50 category
[5] = Examples for Formulae (IV), (V), (VI), and (VII), HEK STF293 cells, Wnt3a-conditioned media, read-out: TOPFlash IC50 category
[6] = Examples for Formulae (IV), (V), (VI), and (VII), HCT116 cells, read-out: Viability IC50 category

| SMILES | IC50 [1, 3] [nM] | IC50 [2, 4] [nM] | IC50 [1, 5] [nM] | IC50 [2, 6] [nM] | also measured |
| --- | --- | --- | --- | --- | --- |
| Cc1nc(-c2ccc(-c3nnc[nH]3)cc2)c(C(=O)Nc2nc(-c3ccccn3)cs2)o1 [Example 67] | 200 to 500 | 200 to 500 | – | – | – |
| C#Cc1ccc(-c2nc(C)oc2C(=O)Nc2nc(-c3ccccn3)cs2)cc1 [Example 68] | – | – | < 200 | < 200 | – |
| COCc1nc(-c2ccc(F)cc2)c(C(=O)Nc2nc(-c3ccccn3)cs2)o1 [Example 69] | 200 to 500 | 200 to 500 | – | – | – |
| O=C(Nc1nc(-c2ccccn2)cs1)c1oc(CO)nc1-c1ccc(F)cc1 [Example 70, 4-(4-fluorophenyl)-2-(hydroxymethyl)-N-(4-(pyridin-2-yl)thiazol-2-yl)oxazole-5-carboxamide] | – | – | – | – | IC50 ([1]; Homo sapiens, STF/293, read-out: TOPFlash IC50 category): 500 to 1000 nM; IC50 ([2]; Homo sapiens, HCT-116, read-out: Viability IC50 category): 200 to 500 nM |
| CN1CCN(Cc2nc(-c3ccc(F)cc3)c(C(=O)Nc3nc(-c4ccccn4)cs3)o2)CC1 [Example 71] | 200 to 500 | 200 to 500 | – | – | – |
| O=C(Nc1nc(-c2ccccn2)cs1)c1oc(CN2CCOCC2)nc1-c1ccc(F)cc1 [Example 72] | 200 to 500 | 200 to 500 | – | – | – |
| CN(c1nc(-c2ccc(Cl)cc2)c(C(=O)Nc2nc(-c3ccccn3)cs2)o1)S(=O)(=O)c1ccc(C(F)(F)F)cc1 [Example 73] | – | – | < 200 | < 200 | – |
| CN(c1nc(-c2ccc(S(C)(=O)=O)cc2)c(C(=O)Nc2nc(-c3ccccn3)cs2)o1)S(=O)(=O)c1ccc(F)cc1 [Example 74] | – | – | < 200 | < 200 | – |
| CN(c1nc(-c2ccc(S(C)(=O)=O)cc2)c(C(=O)Nc2nc(-c3ccccn3)cs2)o1)S(=O)(=O)c1ccc(C(F)(F)F)cc1 [Example 75] | – | – | 200 to 500 | < 200 | – |
| CN(C(=O)c1ccc(F)cc1)c1nc(-c2ccc(F)cc2)c(C(=O)Nc2nc(-c3ccccn3)cs2)o1 [Example 76] | < 200 | < 200 | – | – | – |
| Cc1nc(N(C)C(=O)c2ccccc2Cl)oc1C(=O)Nc1nc(-c2ccccn2)cs1 [Example 77] | – | – | 200 to 500 | 500 to 1000 | – |
| CN(C(=O)c1ccccc1Cl)c1nc(C(F)(F)F)c(C(=O)Nc2nc(-c3ccccn3)cs2)o1 [Example 78] | 500 to 1000 | 1000 to 10000 | – | – | – |

Source: patent US20250257061A1, “COMPOSITIONS AND METHODS FOR TREATING CANCER AND REDUCING WNT MEDIATED EFFECTS” (StemSynergy Therapeutics, Inc., priority 2024, published 2025)
